From patent publication US9688710B2, “Inhibitors of sodium glucose cotransporter 1” (LEXICON PHARMACEUTICALS, INC., priority 2012, dated 2017) come the findings set out here.

Molecules are shown by their SMILES. pIC50: −log10 of the molar value.

In test [1] the target is Human sodium/glucose co-transporter type 1 (SGLT1) (Homo sapiens (Human), UniProt P13866). Description: In vitro human SGLT1 inhibition assay (14C-AMG uptake). Further details: key to SGLT1 (human SGLT1 IC50): ***: a value less than 0.01 μM; **: a value less than 0.1 μM; *: a value less than 1 μM; —: a value not measured or exceeding μM. The conditions noted are these: HEK293 cells expressing human HA-SGLT1, 14C-AMG uptake. The class given is cell-based. In a few lines: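 Uptake of 14C-AMG (100 nCi) was measured by scintillation counting after 1–2 h at 37 °C, 5% CO2, with or without compound. The buffer was pH 7.3 with 140 mM NaCl, 1 mM CaCl2, 1 mM MgCl2 and 1 mg/mL BSA. Cells were a stable HEK293 line carrying HA-SGLT1 (human), plated overnight at 30,000 per well.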

For test [2], the target named is Human sodium/glucose co-transporter type 2 (SGLT2) (Homo sapiens (Human), UniProt P31639). As to the kind of experiment: In vitro human SGLT2 inhibition assay (14C-AMG uptake). The class given is cell-based. The conditions noted are these: HEK293 cells expressing human HA-SGLT2, 14C-AMG uptake. The essentials: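 Uptake of 14C-AMG (100 nCi) was followed in a stable HEK293 HA-SGLT2 line over 1-2 h at 37 °C with or without compound. Buffer: 140 mM NaCl, 10 mM HEPES, 5 mM Tris, 1 mg/mL BSA, pH 7.3. Readout was scintillation counting after washing.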
Human sodium/glucose co-transporter type 2 (SGLT2), sequence (P31639 whole entry): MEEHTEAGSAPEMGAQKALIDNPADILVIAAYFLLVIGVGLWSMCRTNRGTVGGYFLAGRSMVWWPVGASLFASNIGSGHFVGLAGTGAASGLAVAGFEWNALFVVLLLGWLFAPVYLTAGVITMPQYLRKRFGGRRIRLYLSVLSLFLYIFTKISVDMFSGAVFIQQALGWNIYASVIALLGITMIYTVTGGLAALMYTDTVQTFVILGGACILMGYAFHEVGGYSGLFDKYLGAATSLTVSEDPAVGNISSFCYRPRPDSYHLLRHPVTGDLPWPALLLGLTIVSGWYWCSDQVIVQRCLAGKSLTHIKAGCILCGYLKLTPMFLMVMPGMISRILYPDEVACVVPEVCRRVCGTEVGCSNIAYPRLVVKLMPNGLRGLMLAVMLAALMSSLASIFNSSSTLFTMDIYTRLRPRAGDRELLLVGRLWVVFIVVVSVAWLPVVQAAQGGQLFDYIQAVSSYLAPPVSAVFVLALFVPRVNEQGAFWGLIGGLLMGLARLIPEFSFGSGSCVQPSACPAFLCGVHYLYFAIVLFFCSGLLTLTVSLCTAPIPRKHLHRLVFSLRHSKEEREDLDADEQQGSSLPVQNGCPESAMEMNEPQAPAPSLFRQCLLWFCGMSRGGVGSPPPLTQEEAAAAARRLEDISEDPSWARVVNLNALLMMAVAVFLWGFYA

Human sodium/glucose co-transporter type 1 (SGLT1), sequence (P13866 whole entry): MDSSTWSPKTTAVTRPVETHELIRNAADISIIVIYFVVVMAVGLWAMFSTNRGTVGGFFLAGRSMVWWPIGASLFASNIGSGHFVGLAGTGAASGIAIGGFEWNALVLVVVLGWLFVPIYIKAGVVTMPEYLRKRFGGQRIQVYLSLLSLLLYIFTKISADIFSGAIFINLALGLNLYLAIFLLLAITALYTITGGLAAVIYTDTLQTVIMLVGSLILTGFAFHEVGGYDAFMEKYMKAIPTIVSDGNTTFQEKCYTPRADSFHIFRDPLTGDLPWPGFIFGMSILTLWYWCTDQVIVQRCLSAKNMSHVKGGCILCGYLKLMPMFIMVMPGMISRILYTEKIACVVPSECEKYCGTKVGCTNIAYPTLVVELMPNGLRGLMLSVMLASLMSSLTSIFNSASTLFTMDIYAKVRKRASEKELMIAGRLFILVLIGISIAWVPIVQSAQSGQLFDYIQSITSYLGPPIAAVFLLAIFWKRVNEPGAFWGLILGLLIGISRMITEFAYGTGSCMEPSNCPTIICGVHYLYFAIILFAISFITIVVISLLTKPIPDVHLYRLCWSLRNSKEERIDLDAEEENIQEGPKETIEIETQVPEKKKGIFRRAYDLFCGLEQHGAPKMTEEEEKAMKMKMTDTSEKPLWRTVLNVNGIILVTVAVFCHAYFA

With `COCCOCCOc1ccc(Cc2cc([C@@H]3O[C@H](SC)[C@@H](O)[C@H](O)[C@H]3O)ccc2C)cc1` [(2S,3R,4R,5S,6R)-2-(3-(4-(2-(2-methoxyethoxy)ethoxy)benzyl)-4-methylphenyl)-6-(methylthio)tetrahydro-2H-pyran-3,4,5-triol], the negative-log IC50 (pIC50) in test [1] and in test [2] was above 8.00 each time.

Take `CS[C@H]1O[C@@H](c2ccc(C)c(Cc3ccc(CCCC(=O)NC(C)(C)C(=O)NC4CCNCC4)cc3)c2)[C@H](O)[C@@H](O)[C@@H]1O` [N-(2-methyl-1-oxo-1-(piperidin-4-ylamino)propan-2-yl)-4-(4-(2-methyl-5-((2S,3R,4R,5S,6R)-3,4,5-trihydroxy-6-(methylthio)tetrahydro-2H-pyran-2-yl)benzyl)phenyl)butanamide]: the negative logarithm of the IC50 (pIC50) in test [1] and in test [2] was above 8.00 each time.

Turning to `CS[C@H]1O[C@@H](c2ccc(C)c(Cc3ccc(CCCCNC(=N)N)cc3)c2)[C@H](O)[C@@H](O)[C@@H]1O` [1-(4-(4-(2-methyl-5-((2S,3R,4R,5S,6R)-3,4,5-trihydroxy-6-(methylthio)tetrahydro-2H-pyran-2-yl)benzyl)phenyl)butyl)guanidine], the pIC50 in test [1] and in test [2] was above 8.00 each time.

For `CS[C@H]1O[C@@H](c2ccc(C)c(Cc3ccc(OCCCNCC(C)(C)CN(C)C)cc3)c2)[C@H](O)[C@@H](O)[C@@H]1O` [(2S,3R,4R,5S,6R)-2-(3-(4-(3-((3-(dimethylamino)-2,2-dimethylpropyl)amino)propoxy)benzyl)-4-methylphenyl)-6-(methylthio)tetrahydro-2H-pyran-3,4,5-triol], the negative logarithm of the IC50 (pIC50) in test [1] and in test [2] was above 8.00 in each case.

As for `CS[C@H]1OC(c2ccc(C)c(Cc3ccc(OCCNC(=O)N4CCN(C)CC4)cc3)c2)[C@H](O)[C@@H](O)[C@@H]1O` (stereo partly drawn) [4-methyl-N-(2-(4-(2-methyl-5-((3R,4R,5S,6R)-3,4,5-trihydroxy-6-(methylthio)tetrahydro-2H-pyran-2-yl)benzyl)phenoxy)ethyl)piperazine-1-carboxamide], the pIC50 in test [1] and in test [2] was above 8.00 throughout.

Consider `CS[C@H]1O[C@@H](c2ccc(C)c(Cc3ccc(CCCC(=O)NC4(C(=O)N5CCN(C)CC5)CCCC4)cc3)c2)[C@H](O)[C@@H](O)[C@@H]1O` [4-(4-(2-methyl-5-((2S,3R,4R,5S,6R)-3,4,5-trihydroxy-6-(methylthio)tetrahydro-2H-pyran-2-yl)benzyl)phenyl)-N-(1-(4-methylpiperazine-1-carbonyl)cyclopentyl)butanamide], for which the pIC50 in test [1] and in test [2] was above 8.00 each time.

For the compound `CS[C@H]1O[C@@H](c2ccc(C)c(Cc3ccc(CCCC(=O)NC(C)(C)C(=O)N4CCC(C)CC4)cc3)c2)[C@H](O)[C@@H](O)[C@@H]1O` [N-(2-methyl-1-(4-methylpiperidin-1-yl)-1-oxopropan-2-yl)-4-(4-(2-methyl-5-((2S,3R,4R,5S,6R)-3,4,5-trihydroxy-6-(methylthio)tetrahydro-2H-pyran-2-yl)benzyl)phenyl)butanamide], the pIC50 in test [1] and in test [2] was above 8.00 in each case.

`CS[C@H]1O[C@@H](c2ccc(C)c(Cc3ccc(OCCNC(=N)N)cc3)c2)[C@H](O)[C@@H](O)[C@@H]1O` [1-(2-(4-(2-methyl-5-((2S,3R,4R,5S,6R)-3,4,5-trihydroxy-6-(methylthio)tetrahydro-2H-pyran-2-yl)benzyl)phenoxy)ethyl)guanidine]: the pIC50 in test [1] and in test [2] was above 8.00 each time.

For the compound `CS[C@H]1O[C@@H](c2ccc(C)c(Cc3ccc(CCCC(=O)NC(C)(C)C(N)=O)cc3)c2)[C@H](O)[C@@H](O)[C@@H]1O` [N-(1-amino-2-methyl-1-oxopropan-2-yl)-4-(4-(2-methyl-5-((2S,3R,4R,5S,6R)-3,4,5-trihydroxy-6-(methylthio)tetrahydro-2H-pyran-2-yl)benzyl)phenyl)butanamide], the pIC50 in test [1] and in test [2] was above 8.00 each time.

`CS[C@H]1O[C@@H](c2ccc(C)c(Cc3ccc(OCCCNCC(C)(C)C(N)=O)cc3)c2)[C@H](O)[C@@H](O)[C@@H]1O` [2,2-dimethyl-3-((3-(4-(2-methyl-5-((2S,3R,4R,5S,6R)-3,4,5-trihydroxy-6-(methylthio)tetrahydro-2H-pyran-2-yl)benzyl)phenoxy)propyl)-amino)propanamide]: the pIC50 in test [1] and in test [2] was above 8.00 each time.

As to `CS[C@H]1O[C@@H](c2ccc(C)c(Cc3ccc(OCC(=O)NCC(C)(C)C(N)=O)cc3)c2)[C@H](O)[C@@H](O)[C@@H]1O` [2,2-dimethyl-3-(2-(4-(2-methyl-5-((2S,3R,4R,5S,6R)-3,4,5-trihydroxy-6-(methylthio)tetrahydro-2H-pyran-2-yl)benzyl)phenoxy)acetamido)propanamide], the pIC50 was above 7.00 in test [1] and above 8.00 in test [2].

`CS[C@H]1OC(c2ccc(C)c(Cc3ccc(OCCCNC(C)(CO)CO)cc3)c2)[C@H](O)[C@@H](O)[C@@H]1O` (stereo partly drawn) [(3R,4R,5S,6R)-2-(3-(4-(3-((1,3-dihydroxy-2-methylpropan-2-yl)amino)propoxy)benzyl)-4-methylphenyl)-6-(methylthio)tetrahydro-2H-pyran-3,4,5-triol]: the pIC50 in test [1] and in test [2] was above 8.00 in each case.

For the compound `CS[C@H]1O[C@@H](c2ccc(C)c(Cc3ccc(OCCCC(=O)NCC(N)=O)cc3)c2)[C@H](O)[C@@H](O)[C@@H]1O` [N-(2-amino-2-oxoethyl)-4-(4-(2-methyl-5-((2S,3R,4R,5S,6R)-3,4,5-trihydroxy-6-(methylthio)tetrahydro-2H-pyran-2-yl)benzyl)phenoxy)butanamide], the pIC50 is above 7.00 in test [1] and above 8.00 in test [2].

As to `CCNC(=O)CCCOc1ccc(Cc2cc([C@@H]3O[C@H](SC)[C@@H](O)[C@H](O)[C@H]3O)ccc2Cl)cc1` [4-(4-(2-chloro-5-((2S,3R,4R,5S,6R)-3,4,5-trihydroxy-6-(methylthio)tetrahydro-2H-pyran-2-yl)benzyl)phenoxy)-N-ethylbutanamide], the pIC50 was above 7.00 in test [1] and above 8.00 in test [2].

On to `CS[C@H]1O[C@@H](c2ccc(C)c(Cc3ccc(OCCCC(=O)NC4(C(N)=O)CCCC4)cc3)c2)[C@H](O)[C@@H](O)[C@@H]1O` [1-(4-(4-(2-methyl-5-((2S,3R,4R,5S,6R)-3,4,5-trihydroxy-6-(methylthio)tetrahydro-2H-pyran-2-yl)benzyl)phenoxy)butanamido)cyclopentanecarboxamide], for which the pIC50 in test [1] and in test [2] was above 8.00 each time.

In the case of `CS[C@H]1O[C@@H](c2ccc(C)c(Cc3ccc(CCCC#N)cc3)c2)[C@H](O)[C@@H](O)[C@@H]1O` [4-(4-(2-methyl-5-((2S,3R,4R,5S,6R)-3,4,5-trihydroxy-6-(methylthio)tetrahydro-2H-pyran-2-yl)benzyl)phenyl)butanenitrile], in test [1], the “SGLT1 (human SGLT1 IC50)” value was “—”. This compound had a pIC50 in test [2] above 7.00.

With `CS[C@H]1O[C@@H](c2ccc(C)c(Cc3ccc(OCCCC(=O)N[C@@H](C)C(N)=O)cc3)c2)[C@H](O)[C@@H](O)[C@@H]1O` [N-((S)-1-amino-1-oxopropan-2-yl)-4-(4-(2-methyl-5-((2S,3R,4R,5S,6R)-3,4,5-trihydroxy-6-(methylthio)tetrahydro-2H-pyran-2-yl)benzyl)phenoxy)butanamide], the pIC50 in test [1] was above 7.00; in test [2], above 8.00.
